Test results published in ChEMBL document CHEMBL1201862, “PubChem BioAssay data set” (2004).
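Cells were grown in 96-well plates and exposed to each compound for 48 hours at five concentrations; endpoints were interpolated linearly between bracketing concentrations, or set to the highest concentration if not reached. GI50 is the concentration that inhibits growth by half.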 The source made the active and inactive calls. No stated cut-off is given here; in the data, active = GI50 up to about 1.1 µM and inactive = higher.

Experiments:
Assay in all cases: growth of human tumour cells (NCI), 48 h
[1] = tested on: 786-0
[2] = tested on: A498
[3] = tested on: CAKI-1
[4] = tested on: COLO 205
[5] = tested on: HL-60
[6] = tested on: HOP-62
[7] = tested on: HT-29
[8] = tested on: LOX IMVI
[9] = tested on: MCF7
[10] = tested on: MDA-MB-435
[11] = tested on: MDA-N
[12] = tested on: OVCAR-8
[13] = tested on: SF-268
[14] = tested on: SF-539
[15] = tested on: SK-MEL-5
[16] = tested on: SN12C
[17] = tested on: UACC-257
[18] = tested on: UACC-62
[19] = tested on: UO-31

Measured: GI50

C=C1C(=O)O[C@@H]2C[C@@]3(C)CCC[C@H](C)C3=C[C@H]12 [HELENINE]
inactive: [1] 3.53 µM | [2] 12.4 µM | [3] 5.33 µM | [4] 1.73 µM | [5] 1.98 µM | [6] 12.3 µM | [7] 4.29 µM | [8] 10.5 µM | [9] 4.58 µM | [10] 5.08 µM | [11] 4.66 µM | [12] 6.19 µM | [13] 12.6 µM | [14] 10.6 µM | [15] 4.8 µM | [16] 3.01 µM | [17] 7.21 µM | [18] 6.46 µM | [19] 4.95 µM

CC(C)(C)OC(=O)N1CCc2c(n(C/C=C/c3ccccc3)[nH]c2=O)C1
inactive: [1] > 100 µM | [2] > 100 µM | [3] > 100 µM | [4] > 70.6 µM | [5] 27.8 µM | [6] > 80.7 µM | [7] > 100 µM | [8] > 100 µM | [9] 65.3 µM | [10] > 100 µM | [11] > 100 µM | [12] > 100 µM | [13] > 100 µM | [14] > 100 µM | [15] 34.4 µM | [16] > 100 µM | [17] > 100 µM | [18] > 100 µM | [19] 61.2 µM

CCN(CC)CCNc1nc(N)c(C#N)c(C#N)c1C#N
inactive: [1] > 10 µM | [2] > 10 µM | [3] > 10 µM | [4] > 10 µM | [5] > 10 µM | [6] > 10 µM | [7] > 10 µM | [8] > 10 µM | [9] > 10 µM | [10] > 10 µM | [11] > 10 µM | [12] > 10 µM | [13] > 10 µM | [14] > 10 µM | [15] > 10 µM | [16] > 10 µM | [17] > 10 µM | [18] > 10 µM | [19] > 10 µM

CCSCCCCC(c1ccc(O)cc1)C(C)(CC)c1ccc(O)cc1 (stereo not given)
inactive: [1] 24.4 µM | [2] > 100 µM | [3] 35 µM | [4] 20.4 µM | [5] > 100 µM | [6] 53.7 µM | [8] 17.6 µM | [9] 27.4 µM | [10] 18.2 µM | [11] 23.2 µM | [12] 19.3 µM | [13] 20.3 µM | [14] 20 µM | [15] 18.2 µM | [16] 33.1 µM | [17] 22.2 µM | [18] 27.2 µM | [19] 19.6 µM

CC(=O)NC1C(OCc2ccccc2)OC(CO)C(O)C1OCC(=O)NC(C)C(=O)NC(CCC(=O)Nc1ccc2c(c1)CN1C(=O)c3ccccc3C1=N2)C(N)=O (stereo not given)
inactive: [1] > 100 µM | [2] > 100 µM | [3] > 100 µM | [4] > 100 µM | [5] > 100 µM | [6] > 100 µM | [7] > 100 µM | [8] > 100 µM | [9] 53.2 µM | [10] > 100 µM | [11] > 100 µM | [12] > 100 µM | [13] > 100 µM | [14] > 100 µM | [15] > 100 µM | [16] > 100 µM | [17] > 100 µM | [18] > 100 µM | [19] > 100 µM

NCc1ccccc1.O=C(O)NCc1ccccc1
inactive: [1] 36.3 µM | [2] 29 µM | [3] 42.7 µM | [4] 19.3 µM | [5] 26.7 µM | [6] 38 µM | [7] 27.7 µM | [8] 30.3 µM | [9] 34.8 µM | [10] 31.5 µM | [11] 29.5 µM | [12] 37.1 µM | [13] 39.7 µM | [14] 41.1 µM | [15] 16.8 µM | [16] 31.8 µM | [17] 32 µM | [18] 15.1 µM | [19] 24.3 µM

COC(=O)C1(CCC(=O)N(C)c2ccccc2)NNC2C(=O)N(c3ccccc3)C(=O)C21 (stereo not given)
inactive: [1] > 10 µM | [2] > 10 µM | [3] > 10 µM | [4] > 10 µM | [5] > 10 µM | [6] > 10 µM | [7] > 10 µM | [8] > 10 µM | [9] > 10 µM | [10] > 10 µM | [11] > 10 µM | [12] > 10 µM | [13] > 10 µM | [14] > 10 µM | [15] > 10 µM | [16] > 10 µM | [17] > 10 µM | [18] > 10 µM | [19] > 10 µM

COc1cc(/C=C2\CC3C4CC[C@H]5C[C@@H](O)CC[C@]5(C)C4CC[C@]3(C)\C2=N\O)cc(OC)c1OC (stereo not given in full)
inactive: [1] 7.96 µM | [2] 11.2 µM | [3] 4.09 µM | [4] 5.94 µM | [5] 3.46 µM | [6] 12 µM | [7] 7.36 µM | [8] 11.5 µM | [9] 4.05 µM | [10] 7.41 µM | [11] 14.8 µM | [12] 17.3 µM | [13] 24 µM | [14] 10.8 µM | [15] 5.21 µM | [16] 13.7 µM | [17] 10.7 µM | [18] 14.3 µM | [19] 3.44 µM

CN(C)c1ccc(Cc2cc3c(O)ccc(O)c3cc(Cc3ccc(N(C)C)cc3)c2=O)cc1
inactive: [1] 16 µM | [2] 46.1 µM | [3] 6.46 µM | [4] 16.1 µM | [5] 3.04 µM | [6] 45.7 µM | [7] 19.2 µM | [8] 17.7 µM | [9] 17.3 µM | [10] 15.1 µM | [11] 18.8 µM | [12] 17.1 µM | [13] 29.6 µM | [14] 26.1 µM | [15] 19.2 µM | [16] 28.2 µM | [17] 21.1 µM | [18] 26 µM | [19] 13.1 µM

COC(=O)c1ccc2n1C1CC3CC(CC2C3)C1
inactive: [1] > 100 µM | [2] > 100 µM | [3] > 100 µM | [4] > 100 µM | [5] 15.3 µM | [6] > 100 µM | [7] 31.5 µM | [8] > 100 µM | [9] > 100 µM | [10] > 100 µM | [11] > 100 µM | [12] > 100 µM | [13] > 100 µM | [14] > 100 µM | [15] 30.9 µM | [16] > 100 µM | [17] > 100 µM | [18] 41.2 µM | [19] > 100 µM

Cc1c(C#N)c2nnn(-c3ccc([N+](=O)[O-])cc3)c(=O)n2c1-c1ccccc1
inactive: [1] 12.2 µM | [2] 5.64 µM | [3] 12.1 µM | [4] 10.4 µM | [5] 14.7 µM | [6] 7.29 µM | [7] 8.53 µM | [8] 10.3 µM | [9] 6.22 µM | [10] 13 µM | [11] 10.2 µM | [12] 10.7 µM | [13] 14.7 µM | [14] 14.6 µM | [15] 12.6 µM | [16] 11.5 µM | [17] 16.9 µM | [18] 6.19 µM | [19] 11.2 µM

O=C(C1OC1c1cccc([N+](=O)[O-])c1)C12CC3CC(CC(C3)C1)C2 (stereo not given)
inactive: [1] 2.69 µM | [2] 5.13 µM | [3] 8.83 µM | [4] 9.89 µM | [5] 2.43 µM | [6] 10.7 µM | [7] 3.39 µM | [8] 1.72 µM | [9] 2.86 µM | [10] 3.52 µM | [11] 3.19 µM | [12] 2.25 µM | [13] 2.63 µM | [14] 8.79 µM | [15] 10.5 µM | [16] 4.2 µM | [17] 11.7 µM | [18] 3.74 µM | [19] 8.26 µM

O=C1OC(C2Cc3ccc4c(c3C2=O)CCCC4)c2ccccc21 (stereo not given)
inactive: [1] 50.8 µM | [2] 16.8 µM | [3] 69.3 µM | [4] 46.8 µM | [5] 71.3 µM | [6] 74.1 µM | [7] 36.6 µM | [8] 25.5 µM | [9] 33.9 µM | [10] 38.8 µM | [11] 34.8 µM | [12] 43.9 µM | [13] 49.2 µM | [14] 24.7 µM | [15] 33.4 µM | [16] 28.5 µM | [17] 52.2 µM | [18] 23.7 µM | [19] 50 µM

O=C1C2=Cc3ccccc3CCN2c2ccc([N+](=O)[O-])cc21
inactive: [1] > 100 µM | [2] 35.9 µM | [3] 69.3 µM | [4] 43.2 µM | [5] 66.5 µM | [6] > 100 µM | [7] > 100 µM | [8] 92.7 µM | [9] 2.92 µM | [10] > 100 µM | [11] > 100 µM | [12] 35.4 µM | [13] 91.4 µM | [14] 82.6 µM | [15] 21.9 µM | [16] 81.5 µM | [17] 36.4 µM | [18] 55.5 µM | [19] 24.2 µM
